This note sets out measurements from patent publication US20210009541A1, “FUNGICIDAL OXADIAZOLES” (Bayer Aktiengesellschaft, priority 2018, published 2021).

For orientation: chromatographic logP means lipophilicity estimated from chromatographic retention. Read a low chromatographic logP as a more hydrophilic compound.

Marks after values point to notes of the source that are not given here.

The first data set can be described thus: LogP by HPLC on reversed phase columns (EEC directive 79/831 Annex V.A8). It counts as physicochemical.
Conditions: not given
How it is done:
[table] If more than one Log P value is available within the same method, all the values are given and separated by “+”. […] Lambda-max-values were determined using UV-spectra from 200 nm to 400 nm and the peak values of the chromatographic signals.
Take `ON=C1CCCc2cc(-c3noc(C(F)(F)F)n3)ccc21` [Compound I-001]: the LogP was 3.62^[a]. The same measure, in the same setting: then `FC(F)(F)c1nc(-c2ccc3nc[nH]c3c2)no1` [Compound I-002], with 1.46^[a]; and `Cn1cnc2cc(-c3noc(C(F)(F)F)n3)ccc21` [Compound I-003], with 1.70^[a]; and `Cn1cnc2ccc(-c3noc(C(F)(F)F)n3)cc21` [Compound I-004], with 1.67^[a]. On the same count and under the same terms, then `FC(F)(F)c1nc(-c2ccc3cn[nH]c3c2)no1` [Compound I-006], with 2.70^[a]; and `FC(F)(F)c1nc(-c2ccc3cnn(Cc4ccccc4)c3c2)no1` [Compound I-007], with 4.34^[a]; and `FC(F)(F)c1nc(-c2ccc3cn(Cc4ccccc4)nc3c2)no1` [Compound I-008], with 4.03^[a]. Same read-out and setting: as for `FC(F)(F)c1nc(-c2ccc3c(cnn3Cc3ccccc3)c2)no1` [Compound I-009], the figure is 4.39^[a]; as for `CCn1cc2cc(-c3noc(C(F)(F)F)n3)ccc2n1` [Compound I-010], 3.15^[a]. Consider `CCn1ncc2cc(-c3noc(C(F)(F)F)n3)ccc21` [Compound I-011], for which the LogP is 3.67^[a]. Same read-out and setting: as for `FC(F)(F)c1nc(-c2ccc3nn(Cc4ccccc4)cc3c2)no1` [Compound I-012], the figure is 4.03^[a]; as for `CCn1cc2ccc(-c3noc(C(F)(F)F)n3)cc2n1` [Compound I-015], 3.21^[a]. The same measure, in the same setting: then `COCCn1ncc2ccc(-c3noc(C(F)(F)F)n3)cc21` [Compound I-016], with 3.35^[a]; and `COCCn1cc2ccc(-c3noc(C(F)(F)F)n3)cc2n1` [Compound I-017], with 3.00^[a].

Take `CON(C(=O)C1CC1)C1CCCc2cc(-c3noc(C(F)(F)F)n3)ccc21` (stereo not drawn) [Compound I-019]: the LogP is 4.44^[a].

Consider `COCCC(=O)N(OC)C1CCCc2cc(-c3noc(C(F)(F)F)n3)ccc21` (stereo not drawn) [Compound I-021], for which the LogP is 3.96^[a]. As for `CON(C(=O)c1ccccc1)C1CCCc2cc(-c3noc(C(F)(F)F)n3)ccc21` (stereo not drawn) [Compound I-022], the LogP was 4.72^[a]. The same measure, in the same setting: then `COC(=O)N(OC)C1CCCc2cc(-c3noc(C(F)(F)F)n3)ccc21` (stereo not drawn) [Compound I-024], with 4.34^[a]; and `COCCOC(=O)N(OC)C1CCCc2cc(-c3noc(C(F)(F)F)n3)ccc21` (stereo not drawn) [Compound I-025], with 4.27^[a]; and `COC(=O)N1CCc2ccc(-c3noc(C(F)(F)Cl)n3)cc2C1` [Compound I-026], with 3.83^[a].

`COC(=O)N1CCCc2cc(-c3noc(C(F)(F)Cl)n3)ccc21` [Compound I-027]: the LogP was 4.27^[a]. On the same count and under the same terms, then `COC(=O)N1CCCc2cc(-c3noc(C(F)(F)F)n3)ccc21` [Compound I-028], with 4.03^[a]; and `CCC(=O)N1CCCc2cc(-c3noc(C(F)(F)Cl)n3)ccc21` [Compound I-029], with 3.90^[a]; and `CCC(=O)N1CCCc2cc(-c3noc(C(F)(F)F)n3)ccc21` [Compound I-030], with 3.68^[a].

As for `CCC(=O)N1CCc2ccc(-c3noc(C(F)(F)F)n3)cc2C1` [Compound I-031], the LogP is 3.11^[a]. On the same count and under the same terms, then `COC(=O)N1CCc2ccc(-c3noc(C(F)(F)F)n3)cc2C1` [Compound I-032], with 3.59^[a]; and `CCC(=O)N1CCc2ccc(-c3noc(C(F)(F)Cl)n3)cc2C1` [Compound I-033], with 3.31^[a]. The same measure, in the same setting: as for `CN(C)C(=O)Oc1ccc2cc(-c3noc(C(F)(F)F)n3)ccc2c1` [Compound I-034], the figure is 4.18^[a]; as for `O=C(c1cnc2ccc(-c3noc(C(F)(F)F)n3)cn12)C(F)(F)F` [Compound I-035], 3.41^[a]. On the same count and under the same terms, as for `FC(F)(F)c1nc(-c2ccc3ncc(Br)n3c2)no1` [Compound I-036], the figure is 2.75^[a]. With `COCCNC(=O)c1cn2cc(-c3noc(C(F)(F)F)n3)ccc2n1` [Compound I-037], the LogP was 2.18^[a].

On to `CC(C)(C)OC(=O)N1CCc2cc(-c3noc(C(F)(F)F)n3)ccc2C1` [Compound I-038], for which the LogP is 4.93^[a]. On the same count and under the same terms, as for `CCOC(=O)c1cn2cc(-c3noc(C(F)(F)F)n3)ccc2n1` [Compound I-039], the figure is 2.59^[a]. On the same count and under the same terms, then `O=C(O)c1cn2cc(-c3noc(C(F)(F)F)n3)ccc2n1` [Compound I-040], with 1.41^[a]. Same read-out and setting: as for `FC(F)(Cl)c1nc(-c2ccc3nc[nH]c3c2)no1` [Compound I-041], the figure is 1.57^[a]; as for `Nc1ccc2cc(-c3noc(C(F)(F)F)n3)ccc2c1` [Compound I-042], 3.47^[a]; as for `FC(F)(F)c1nc(-c2ccc3ncsc3c2)no1` [Compound I-043], 3.21^[a]. As to `FC(F)(F)c1nc(-c2cc(Cl)c3nn[nH]c3c2)no1` [Compound I-044], the LogP is 2.78^[a]. With `CCn1c(C)nc2cc(-c3noc(C(F)(F)F)n3)ccc21` [Compound I-045], the LogP is 1.60^[a]. On the same count and under the same terms, then `FC(F)(Cl)c1nc(-c2ccc3cc[nH]c3c2)no1` [Compound I-046], with 3.68^[a]. Consider `O=C(C1CC1)N1CCc2cc(-c3noc(C(F)(F)F)n3)ccc2C1` [Compound I-047], for which the LogP is 3.31^[a]. On the same count and under the same terms, then `COC(=O)N1CCc2cc(-c3noc(C(F)(F)F)n3)ccc2C1` [Compound I-048], with 3.63^[a]; and `CC(=O)N1CCc2cc(-c3noc(C(F)(F)F)n3)ccc2C1` [Compound I-049], with 2.71^[a]; and `O=C(Cc1ccccc1)N1CCc2cc(-c3noc(C(F)(F)F)n3)ccc2C1` [Compound I-050], with 3.83^[a]. In the case of `COC(=O)Nc1cc2cc(-c3noc(C(F)(F)F)n3)ccc2cn1` [Compound I-051], the LogP is 3.45^[a].

With `CCC(=O)Nc1cc2cc(-c3noc(C(F)(F)F)n3)ccc2cn1` [Compound I-052], the LogP was 3.33^[a]. Same read-out and setting: as for `CC(=O)Nc1ccc(-c2noc(C(F)(F)F)n2)c2c1CCO2` [Compound I-053], the figure is 2.32^[a]; as for `CC(=O)Nc1cc2cc(-c3noc(C(F)(F)F)n3)ccc2cn1` [Compound I-054], 2.90^[a]; as for `Nc1cc2cc(-c3noc(C(F)(F)F)n3)ccc2cn1` [Compound I-055], 2.31^[a].

As to `CC(=O)Nc1ccc(-c2noc(C(F)(F)F)n2)c2c1CCC2` [Compound I-056], the LogP is 3.28^[a]. The same measure, in the same setting: then `FC(F)(Cl)c1nc(-c2ccc3ncn(Cc4ccccc4)c3c2)no1` [Compound I-058], with 3.23^[a].

The data set is the same for the next values; noted with them: method [a]: LC-UV, acidic range, 0.1% formic acid in water and acetonitrile as eluent.
With `O=C(Nc1ccc2cc(-c3noc(C(F)(F)F)n3)ccc2c1)C(F)(F)F` [Compound I-057], the LogP is 4.27^[a].

Staying with this data set, now noted: reversed phase HPLC column; method [a]: LC-UV, acidic range, 0.1% formic acid in water and acetonitrile as eluent.
On to `CONC1CCCc2cc(-c3noc(C(F)(F)F)n3)ccc21` (stereo not drawn) [Compound I-018, O-Methyl-N-{6-[5-(trifluoromethyl)-1,2,4-oxadiazol-3-yl]-1,2,3,4-tetrahydronaphthalen-1-yl}hydroxylamine], for which the chromatographic logP was found to be 4.08.

`CCN(OC)C1CCCc2cc(-c3noc(C(F)(F)F)n3)ccc21` (stereo not drawn) [Compound I-023, N-Ethyl-O-methyl-N-{6-[5-(trifluoromethyl)-1,2,4-oxadiazol-3-yl]-1,2,3,4-tetrahydronaphthalen-1-yl}hydroxylamine] gave a chromatographic logP of 6.04.
